Experimental data published in ChEMBL document CHEMBL3227984, “5-Substituted uracil arabinonucleosides as potential antiviral agents” (J Med Chem, 1979).
Active and inactive are the calls of the source. No cut-off for these calls is given here.

Tested on: Vaccinia virus
Assay: Antiviral activity against Vaccinia virus infected in human skin fibroblasts assessed as inhibition of virus-induced cytopathogenicity
Assay type: functional, organism-based
Conditions: Orthopoxvirus vaccinia

| Structure (SMILES) | inhibition |
| --- | --- |
| N#Cc1cn([C@@H]2O[C@H](CO)[C@@H](O)[C@@H]2O)c(=O)[nH]c1=O | Active |
| O=c1[nH]c(=O)n([C@@H]2O[C@H](CO)[C@@H](O)[C@@H]2O)cc1O | Active |
| O=c1ccn([C@@H]2O[C@H](CO)[C@@H](O)[C@@H]2O)c(=O)[nH]1 [ARAURIDINE] | Active |
| Cc1cn([C@@H]2O[C@H](CO)[C@@H](O)[C@@H]2O)c(=O)[nH]c1=O | Active |
| O=c1[nH]c(=O)n([C@@H]2O[C@H](CO)[C@@H](O)[C@@H]2O)cc1[N+](=O)[O-] | Active |
